The values below come from patent publication US10329324B2 (viDA Therapeutics Inc., priority 2013, dated 2019).

The target of one data set is T1, human Granzyme B (hGzmB) (Homo sapiens, UniProt P10144).
T1 construct: purchased Froelich Lab, Northshore University Health Systems Research Institute, Evanston, Ill., USA
The data set can be described thus: Human Granzyme B enzymatic inhibition assay (fluorogenic, kinetic). Conditions: activity codes, Table 7; read-out: IC50 Activity Range. Type of data set: biochemical. The procedure, abridged:
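Human Granzyme B preincubated with compound for 30 min total (5 min shaking, 20 min bench, then reaction temperature). Fluorogenic substrate added and read kinetically, 25 cycles at 1-min intervals. Percent inhibition at one or two concentrations or 8–12-point 3-fold dose response from 20 uM, replicates, with IC50 by non-linear regression.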

The nature of data set [1]: Kinetic solubility determination in PBS. The following applies: phosphate buffered saline (PBS 1×), 21 °C, pH 7.4, aqueous buffer, kinetic from dmso stock, PBS 1X pH 7.4, 2.0% DMSO, 24 hour incubation at ambient temperature. Type of data set: physicochemical. The procedure, abridged:
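DMSO stocks were diluted into PBS (1×) pH 7.4 to 2.0% final DMSO and a maximum theoretical concentration of typically 200 μM. After 24 hour incubation at ambient temperature (20.5-21.7° C.), samples were vacuum filtered. The filtrate was quantified by chemiluminescent nitrogen detection against a nitrogen calibration curve, with background-corrected values given in μM and μg/mL.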

The mark [2] stands for this setting: read-out: Solubility in aqueous PBS Buffer (1X, pH 7.4).
[3] abbreviates: read-out: Solubility in aqueous PBS Buffer (1X, pH 7.4), ug/mL.

Where a name gives a salt, the structure may show the parent alone. Read-outs that look alike come from different tables or passages of the source.

T1 sequence (P10144 21-247): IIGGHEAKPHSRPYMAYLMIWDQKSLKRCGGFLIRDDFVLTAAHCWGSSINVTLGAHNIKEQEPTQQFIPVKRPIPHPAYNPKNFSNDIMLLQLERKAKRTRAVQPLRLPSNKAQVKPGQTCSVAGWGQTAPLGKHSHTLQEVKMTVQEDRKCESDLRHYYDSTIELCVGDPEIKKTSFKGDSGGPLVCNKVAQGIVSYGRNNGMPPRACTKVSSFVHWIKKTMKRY

For orientation: IC50 means the concentration at which inhibition is half-maximal. In the case of `CC[C@H](C)[C@H](NC(=O)CC(C)(C)CC(=O)O)C(=O)NCC(=O)N1c2ccccc2C[C@H]1C(=O)NCc1nn[nH]n1` [Example A18, 3,3-Dimethyl-4-{[(1S,2S)-2-Methyl-1-({2-Oxo-2-[(2S)-2-[(2H-1,2,3,4-Tetrazol-5-Ylmethyl)Carbamoyl]-2,3-Dihydro-1H-Indol-1-Yl]Ethyl}Carbamoyl)Butyl]Carbamoyl}Butanoic Acid], the IC50 on human Granzyme B (hGzmB) was less than 100 nM. For the same molecule, the solubility at 24 h in data set [1] (setting [2]) came to 679 µM; in data set [1] (setting [3]), 447 µg/mL.
As for `CC[C@H](C)[C@H](NC(=O)[C@H](O)[C@@H](O)C(=O)O)C(=O)NCC(=O)N1c2ccccc2C[C@H]1C(=O)NCc1nn[nH]n1` [Example A32, (2R,3R)-2,3-Dihydroxy-3-{[(1S,2S)-2-Methyl-1-({2-Oxo-2-[(2S)-2-[(2H-1,2,3,4-Tetrazol-5-Ylmethyl)Carbamoyl]-2,3-Dihydro-1H-Indol-1-Yl]Ethyl}Carbamoyl)Butyl]Carbamoyl}Propanoic Acid], the IC50 on human Granzyme B (hGzmB) is less than 100 nM. The solubility at 24 h in data set [1] (setting [2]) is more than 750 µM; in data set [1] (setting [3]), more than 410 µg/mL.
Taken in the same sequence, the figures for `CC[C@H](C)[C@H](NC(=O)Cc1ccccc1)C(=O)NCC(=O)N1c2cc(NC(C)=O)ccc2C[C@H]1C(=O)NCc1nn[nH]n1` [Example C27, (2S)-6-Acetamido-1-{2-[(2S,3S)-3-Methyl-2-(2-Phenylacetamido)Pentanamido]Acetyl}-N-(2H-1,2,3,4-Tetrazol-5-Ylmethyl)-2,3-Dihydro-1H-Indole-2-Carboxamide] were 100 to 1000 nM, more than 750 µM and more than 442 µg/mL.
With `CC[C@H](C)[C@H](NC(=O)CCN)C(=O)NCC(=O)N1c2ccccc2C[C@H]1C(=O)NCc1nn[nH]n1` [Example A6, (2S)-1-{2-[(2S,3S)-2-(3-Aminopropanamido)-3-Methylpentanamido]Acetyl}-N-(2H-1,2,3,4-Tetrazol-5-Ylmethyl)-2,3-Dihydro-1H-Indole-2-Carboxamide], on human Granzyme B (hGzmB), the concentration for half-maximal inhibition (IC50) lay in the range of 1000 to 10000 nM. For the same molecule, the results for the solubility at 24 h in data set [1] (setting [2]) and in data set [1] (setting [3]) were more than 150 µM and more than 78 µg/mL, respectively.
Take `O=C(O)CCC(=O)N[C@H](C(=O)NCC(=O)N1c2ccccc2C[C@H]1C(=O)NCc1nn[nH]n1)c1cccs1` [Example C24, 3-{[(R)-({2-Oxo-2-[(2S)-2-[(2H-1,2,3,4-Tetrazol-5-Ylmethyl)Carbamoyl]-2,3-Dihydro-1H-Indol-1-Yl]Ethyl}Carbamoyl)(Thiophen-2-Yl)Methyl]Carbamoyl}Propanoic Acid]: the IC50 on human Granzyme B (hGzmB) lay within 100 to 1000 nM. Moreover, the results for the solubility at 24 h in data set [1] (setting [2]) and in data set [1] (setting [3]) were more than 750 µM and more than 405 µg/mL, respectively.
Take `CC[C@H](C)[C@H](NC(=O)CN(C)CC(=O)O)C(=O)NCC(=O)N1c2ccccc2C[C@H]1C(=O)NCc1nn[nH]n1` [Example A44, 2-[Methyl({[(1S,2S)-2-Methy-1-({2-Oxo-2-[(2S)-2-[(2H-1,2,3,4-Tetrazol-5-Ylmethyl)Carbamoyl]-2,3-Dihydro-1H-Indol-1-Yl]Ethyl}Carbamoyl)Butyl]Carbamoyl}Methyl)Amino]Acetic Acid]: the IC50 on human Granzyme B (hGzmB) is 100 to 1000 nM. The figures for the solubility at 24 h in data set [1] (setting [2]) and in data set [1] (setting [3]) were 724 µM and 467 µg/mL, respectively.
On to `CC[C@H](C)[C@H](NC(=O)Cc1ccccc1)C(=O)NCC(=O)N1c2ccccc2C[C@H]1C(=O)NCc1nn[nH]n1` [Example A1, (2S)-1-{2-[(2S,3S)-3-Methyl-2-(2-Phenylacetamido)Pentanamido]Acetyl}-N-(2H-1,2,3,4-Tetrazol-5-Ylmethyl)-2,3-Dihydro-1H-Indole-2-Carboxamide], for which the IC50 at human Granzyme B (hGzmB) is 100 to 1000 nM. Also, the results for the solubility at 24 h in data set [1] (setting [2]) and in data set [1] (setting [3]) were 144 µM and 77 µg/mL, respectively.
For `CC[C@H](C)[C@H](NC(=O)Cc1ccncc1)C(=O)NCC(=O)N1c2ccccc2C[C@H]1C(=O)NCc1nn[nH]n1` [Example A2, (2S)-1-{2-[(2S,3S)-3-Methyl-2-[2-(Pyridin-4-Yl)Acetamido]Pentanamido]Acetyl}-N-(2H-1,2,3,4-Tetrazol-5-Ylmethyl)-2,3-Dihydro-1H-Indole-2-Carboxamide] the same measures were 100 to 1000 nM, more than 150 µM and more than 80 µg/mL.
For `CC[C@H](C)[C@H](NC(=O)Cc1csc(N)n1)C(=O)NCC(=O)N1c2ccccc2C[C@H]1C(=O)NCc1nn[nH]n1` [Example A10, (2S)-1-{2-[(2S,3S)-2-[2-(2-Amino-1,3-Thiazol-4-Yl)Acetamido]-3-Methylpentanamido]Acetyl}-N-(2H-1,2,3,4-Tetrazol-5-Ylmethyl)-2,3-Dihydro-1H-Indole-2-Carboxamide Hydrochloride] the same measures were 100 to 1000 nM, more than 750 µM and more than 443 µg/mL.
As for `CC[C@H](C)[C@H](NC(=O)C(C)(C)CC(=O)O)C(=O)NCC(=O)N1c2ccccc2C[C@H]1C(=O)NCc1nn[nH]n1` [Example A56, 3,3-Dimethyl-3-{[(1S,2S)-2-Methyl-1-({2-Oxo-2-[(2S)-2-[(2H-1,2,3,4-Tetrazol-5-Ylmethyl)Carbamoyl]-2,3-Dihydro-1H-Indol-1-Yl]Ethyl}Carbamoyl)Butyl]Carbamoyl}Propanoic Acid], the IC50 on human Granzyme B (hGzmB) is less than 100 nM. Moreover, the solubility at 24 h in data set [1] (setting [2]) is more than 750 µM; in data set [1] (setting [3]) it was more than 407 µg/mL.
For the molecule `CC[C@H](C)[C@H](NC(=O)Cc1ccccc1)C(=O)N[C@@H](CCC(=O)O)C(=O)N1c2ccccc2C[C@H]1C(=O)NCc1nn[nH]n1` [Example C13, (4S)-4-[(2S,3S)-3-Methyl-2-(2-Phenylacetamido)Pentanamido]-5-Oxo-5-[(2S)-2-[(2H-1,2,3,4-Tetrazol-5-Ylmethyl)Carbamoyl]-2,3-Dihydro-1H-Indol-1-Yl]Pentanoic Acid], on human Granzyme B (hGzmB), the IC50 is 100 to 1000 nM. In addition, the solubility at 24 h in data set [1] (setting [2]) is more than 750 µM; in data set [1] (setting [3]) it was more than 454 µg/mL.
In the case of `CC(C)[C@H](NC(=O)Cc1ccccc1)C(=O)NCC(=O)N1c2ccccc2C[C@H]1C(=O)NCc1nn[nH]n1` [Example C1, (2S)-1-{2-[(2S)-3-Methyl-2-(2-Phenylacetamido)Butanamido]Acetyl}-N-(2H-1,2,3,4-Tetrazol-5-Ylmethyl)-2,3-Dihydro-1H-Indole-2-Carboxamide], the IC50 at human Granzyme B (hGzmB) was in the range of 100 to 1000 nM. For the same molecule, the values for the solubility at 24 h in data set [1] (setting [2]) and in data set [1] (setting [3]) were more than 150 µM and more than 78 µg/mL, respectively.
Take `CC[C@H](C)[C@H](NC(=O)Cc1ccccn1)C(=O)NCC(=O)N1c2ccccc2C[C@H]1C(=O)NCc1nn[nH]n1` [Example A4, (2S)-1-{2-[(2S,3S)-3-Methyl-2-[2-(Pyridin-2-Yl)Acetamido]Pentanamido]Acetyl}-N-(2H-1,2,3,4-Tetrazol-5-Ylmethyl)-2,3-Dihydro-1H-Indole-2-Carboxamide]: the IC50 on human Granzyme B (hGzmB) is 100 to 1000 nM. In addition, the solubility at 24 h in data set [1] (setting [2]) is more than 150 µM; in data set [1] (setting [3]), more than 80 µg/mL.
Take `CC[C@H](C)[C@H](NC(=O)CC(C)(C)C(=O)O)C(=O)NCC(=O)N1c2ccccc2C[C@H]1C(=O)NCc1nn[nH]n1` [Example A53, 2,2-Dimethyl-3-{[(1S,2S)-2-Methyl-1-({2-Oxo-2-[(2S)-2-[(2H-1,2,3,4-Tetrazol-5-Ylmethyl)Carbamoyl]-2,3-Dihydro-1H-Indol-1-Yl]Ethyl}Carbamoyl)Butyl]Carbamoyl}Propanoic Acid]: the IC50 on human Granzyme B (hGzmB) is less than 100 nM. The solubility at 24 h was more than 750 µM in data set [1] (setting [2]) and more than 407 µg/mL in data set [1] (setting [3]).
With `CC[C@H](C)[C@H](NC(=O)CCCC(=O)O)C(=O)NCC(=O)N1c2ccccc2C[C@H]1C(=O)NCc1nn[nH]n1` [Example A14, 4-{[(1S,2S)-2-Methyl-1-({2-Oxo-2-[(2S)-2-[(2H-1,2,3,4-Tetrazol-5-Ylmethyl)Carbamoyl]-2,3-Dihydro-1H-Indol-1-Yl]Ethyl}Carbamoyl)Butyl]Carbamoyl}Butanoic Acid], the IC50 on human Granzyme B (hGzmB) is less than 100 nM. In addition, the figures for the solubility at 24 h in data set [1] (setting [2]) and in data set [1] (setting [3]) were 107 µM and 57 µg/mL, respectively.
`CC[C@H](C)[C@H](NC(=O)CC1(CC(=O)O)CCCC1)C(=O)NCC(=O)N1c2ccccc2C[C@H]1C(=O)NCc1nn[nH]n1` [Example A19, 2-[1-({[(1S,2S)-2-Methyl-1-({2-Oxo-2-[(2S)-2-[(2H-1,2,3,4-Tetrazol-5-Ylmethyl)Carbamoyl]-2,3-Dihydro-1H-Indol-1-Yl]Ethyl}Carbamoyl)Butyl]Carbamoyl}Methyl)Cyclopentyl]Acetic Acid]: the IC50 at human Granzyme B (hGzmB) is less than 100 nM. For the same molecule, the values for the solubility at 24 h in data set [1] (setting [2]) and in data set [1] (setting [3]) were 672 µM and 391 µg/mL, respectively.
Take `CC[C@H](C)[C@H](NC(=O)Cc1ccc(N)cc1)C(=O)NCC(=O)N1c2ccccc2C[C@H]1C(=O)NCc1nn[nH]n1` [Example A8, (2S)-1-{2-[(2S,3S)-2-[2-(4-Aminophenyl)Acetamido]-3-Methylpentanamido]Acetyl}-N-(2H-1,2,3,4-Tetrazol-5-Ylmethyl)-2,3-Dihydro-1H-Indole-2-Carboxamide Hydrochloride]: the IC50 at human Granzyme B (hGzmB) was 100 to 1000 nM. Also, the solubility at 24 h in data set [1] (setting [2]) was more than 150 µM; in data set [1] (setting [3]) it was more than 88 µg/mL.
As for `CC[C@H](C)[C@H](NC(=O)C(F)(F)C(F)(F)C(=O)O)C(=O)NCC(=O)N1c2ccccc2C[C@H]1C(=O)NCc1nn[nH]n1` [Example A43, 2,2,3,3-Tetrafluoro-3-{[(1S,2S)-2-Methyl-1-({2-Oxo-2-[(2S)-2-[(2H-1,2,3,4-Tetrazol-5-Ylmethyl)Carbamoyl]-2,3-Dihydro-1H-Indol-1-Yl]Ethyl}Carbamoyl)Butyl]Carbamoyl}Propanoic Acid], the IC50 on human Granzyme B (hGzmB) is less than 100 nM. The solubility at 24 h was 583 µM in data set [1] (setting [2]) and 342 µg/mL in data set [1] (setting [3]).
